Test results taken from patent publication US20230210999A1, “TARGETED PROTEASE DEGRADATION (TED) PLATFORM” (EUBULUS BIOTHERAPEUTICS INC., priority 2020, published 2023).
Like-named read-outs stand apart in the source and are kept apart here.

Key:
Format in all cases: cell-based, human
MV4;11 cells = test: Cell proliferation experiment (Alamar blue, 72 h), MV4;11; conditions: Homo sapiens
Experimental: (§1) Reagents: RPMI-1640 medium, McCoy's 5A medium, IMDM medium, MEM medium, L-15 medium, fetal bovine serum. Penicillin-Streptomycin double antibody, trypsin, etc., 2-mercaptoethanol, NEAA, pyruvate, etc.
(§2) The cells were cultured in conventional ways, and the cells should be passed at least 2 generations before plating. Cells at the logarithmic growth phase were collected, prepared into single cell suspensions and counted. The concentration of cells was adjusted to the desired concentration, and cells were inoculated into a 96-well cell culture plate at 100 μl per well. 100 μL of complete medium of the test compound were added to each well, set up 2 duplicate wells for each concentration, and diluted with a 5-fold gradient, and continued to culture for 72 h. All cells were subjected to IC50 test for corresponding samples. The experimental results are shown in Test Example 4.
(§3) The fluorescence intensity of each well was detected using the Alarm blue method, and IC50 was calculated.
(§4) IC50 was calculated according to the following formula:
(§5) Y=Max+(Min−Max)/[1+(X/IC50)×Slope]
(§6) wherein Min, Max and Slope represent the minimum, maximum and slope respectively.

Daudi cells = test: Cell proliferation experiment, Daudi; conditions: Homo sapiens, Daudi, read-out: Inhibitory activity IC50 on Daudi
Experimental: as §1, §2, §3, §4, §5, §6

MDA-MB-231 cells = test: Cell proliferation experiment, MDA-MB-231
Experimental: as §1, §2, §3, §4, §5, §6

NCIH82 cells = test: Cell proliferation experiment, NCI-H82; conditions: Homo sapiens, NCI-H82, NCI-H82 cells; read-out: Inhibitory activity IC50 on NCI-H82
Experimental: as §1, §2, §3, §4, §5, §6

PC-3 = test: Cell proliferation experiment, PC-3; conditions: read-out: Inhibitory activity IC50 on PC-3
Experimental: as §1, §2, §3, §4, §5, §6

[1] = MV4-11, MV4;11 cells, read-out: Inhibitory activity IC50 on MV4;11
[2] = Homo sapiens, MDA-MB-231, MDA-MB-231 cells, read-out: Inhibitory activity IC50 on MDA-MB-231

| IC50 (MV4;11 cells; [1]) | IC50 (Daudi cells; Daudi cells) | IC50 (MDA-MB-231 cells; [2]) | IC50 (NCIH82 cells) | SMILES | further results |
| --- | --- | --- | --- | --- | --- |
| 10 to 100 nM | 10 to 100 nM | 100 to 1000 nM | – | CC[C@@H]1C(=O)N(C)c2cnc(Nc3ccc(C(=O)N[C@H]4CC[C@@H](NC5CCN(CCC#Cc6cccc7c6CN(C6CCC(=O)NC6=O)C7=O)CC5)CC4)cc3OC)nc2N1C1CCCC1 (stereo partly shown) [UB-180934] | IC50 (MV4;11 cells; MV4-11, 72 h, MV4;11 cells, 72 h, read-out: Inhibitory activity IC50 of tested compounds on MV4;11 cells): ≤ 100 nM |
| – | – | – | – | CC[C@@H]1C(=O)N(C)c2cnc(Nc3ccc(C(=O)NCCCOCCCN(CCC#Cc4cccc5c4CN(C4CCC(=O)NC4=O)C5=O)C(=O)OC(C)C(C)SSC[C@@H](NC(=O)[C@@H](CC(=O)O)NC(=O)[C@@H](CC(=O)O)NC(=O)[C@@H](CCCNC(=N)N)NC(=O)[C@@H](CC(=O)O)NC(=O)CC[C@H](NC(=O)c4ccc(NCc5cnc6nc(N)[nH]c(=O)c6n5)cc4)C(=O)O)C(=O)O)cc3OC)nc2N1C1CCCC1 (stereo partly shown) [UB-180939] | IC50 (MV4;11 cells; MV4-11, read-out: Inhibitory activity IC50 on MV4;11): 10 to 100 nM; IC50 (Daudi cells): 100 to 1000 nM; IC50 (MDA-MB-231 cells; Homo sapiens, MDA-MB-231, read-out: Inhibitory activity IC50 on MDA-MB-231): > 1000 nM |
| < 10 nM | 10 to 100 nM | 10 to 100 nM | – | CC[C@@H]1C(=O)N(C)c2cnc(Nc3ccc(-c4cn(CCCCCCNCCC#Cc5cccc6c5CN(C5CCC(=O)NC5=O)C6=O)nn4)cc3OC)nc2N1C1CCCC1 (stereo partly shown) [UB-180949] | – |
| < 10 nM | 100 to 1000 nM | > 1000 nM | 100 to 1000 nM | O=C1CCC(N2Cc3cc(NC(=O)CCOCCOCCOCCn4cc(-c5ccc(Nc6ncc7c(n6)-c6ccc(Cl)cc6C(c6c(F)cccc6F)=NC7)cc5)nn4)ccc3C2=O)C(=O)N1 (stereo not shown) [UB-180950] | – |
| < 10 nM | 10 to 100 nM | < 10 nM | – | CC[C@@H]1C(=O)N(C)c2cnc(Nc3ccc(-c4cn([C@H]5CC[C@@H](NCCCCCC#Cc6cccc7c6CN(C6CCC(=O)NC6=O)C7=O)CC5)nn4)cc3OC)nc2N1C1CCCC1 (stereo partly shown) [UB-180977] | – |
| < 10 nM | 10 to 100 nM | < 10 nM | – | CC[C@@H]1C(=O)N(C)c2cnc(Nc3ccc(C(=O)N[C@H]4CC[C@@H](NCCCCCC#Cc5cccc6c5CN(C5CCC(=O)NC5=O)C6=O)CC4)cc3OC)nc2N1C1CCCC1 (stereo partly shown) [UB-180978] | – |
| 10 to 100 nM | 10 to 100 nM | 100 to 1000 nM | – | CC[C@@H]1C(=O)N(C)c2cnc(Nc3ccc(-c4cn([C@H]5CC[C@@H](N(CCOCCC#Cc6cccc7c6CN(C6CCC(=O)NC6=O)C7=O)C(=O)OC(C)C(C)SSC[C@@H](NC(=O)[C@@H](CC(=O)O)NC(=O)[C@@H](CC(=O)O)NC(=O)[C@@H](CCCNC(=N)N)NC(=O)[C@@H](CC(=O)O)NC(=O)CC[C@H](NC(=O)c6ccc(NCc7cnc8nc(N)[nH]c(=O)c8n7)cc6)C(=O)O)C(=O)O)CC5)nn4)cc3OC)nc2N1C1CCCC1 (stereo partly shown) [UB-180979] | – |
| 10 to 100 nM | 100 to 1000 nM | > 1000 nM | 100 to 1000 nM | O=C1CCC(N2Cc3cc(NC(=O)CCCCCCCCCNCCn4cc(-c5ccc(Nc6ncc7c(n6)-c6ccc(Cl)cc6C(c6c(F)cccc6F)=NC7)cc5)nn4)ccc3C2=O)C(=O)N1 (stereo not shown) [UB-180986] | – |
| < 10 nM | 10 to 100 nM | 10 to 100 nM | – | CC[C@@H]1C(=O)N(C)c2cnc(Nc3ccc(-c4cn([C@H]5CC[C@@H](NCCOCCCC#Cc6cccc7c6CN(C6CCC(=O)NC6=O)C7=O)CC5)nn4)cc3OC)nc2N1C1CCCC1 (stereo partly shown) [UB-180992] | – |
| 10 to 100 nM | 10 to 100 nM | 10 to 100 nM | – | CC[C@@H]1C(=O)N(C)c2cnc(Nc3ccc(-c4cn([C@H]5CC[C@@H](NCCOCCCC#Cc6ccc7c(c6)CN(C6CCC(=O)NC6=O)C7=O)CC5)nn4)cc3OC)nc2N1C1CCCC1 (stereo partly shown) [UB-180993] | – |
| < 10 nM | 10 to 100 nM | 10 to 100 nM | – | CC[C@@H]1C(=O)N(C)c2cnc(Nc3ccc(-c4cn([C@H]5CC[C@@H](NCCCOCCC#Cc6cccc7c6CN(C6CCC(=O)NC6=O)C7=O)CC5)nn4)cc3OC)nc2N1C1CCCC1 (stereo partly shown) [UB-180998] | – |
| < 10 nM | 10 to 100 nM | 10 to 100 nM | – | CC[C@@H]1C(=O)N(C)c2cnc(Nc3ccc(-c4cn([C@H]5CC[C@@H](NCCCOCCC#Cc6ccc7c(c6)CN(C6CCC(=O)NC6=O)C7=O)CC5)nn4)cc3OC)nc2N1C1CCCC1 (stereo partly shown) [UB-180999] | – |
| < 10 nM | 10 to 100 nM | 10 to 100 nM | – | CC[C@@H]1C(=O)N(C)c2cnc(Nc3ccc(-c4cn([C@H]5CC[C@@H](NCCOCCC#Cc6ccc7c(c6)CN(C6CCC(=O)NC6=O)C7=O)CC5)nn4)cc3OC)nc2N1C1CCCC1 (stereo partly shown) [UB-181004] | – |
| 100 to 1000 nM | > 1000 nM | – | > 1000 nM | O=C1CCC(N2Cc3cc(NC(=O)CCOCCOCCNCCn4cc(-c5ccc(Nc6ncc7c(n6)-c6ccc(Cl)cc6C(c6c(F)cccc6F)=NC7)cc5)nn4)ccc3C2=O)C(=O)N1 (stereo not shown) [UB-181016] | – |
| 100 to 1000 nM | > 1000 nM | – | > 1000 nM | O=C1CCC(N2Cc3cc(NC(=O)CNCCCOCCCCCNC(=O)[C@]4(Cc5cccc(Nc6nccs6)n5)CC[C@@H](Oc5cccc(Cl)c5F)CC4)ccc3C2=O)C(=O)N1 (stereo partly shown) [UB-181017] | – |
| > 1000 nM | > 1000 nM | – | > 1000 nM | O=C1CCC(N2Cc3cc(NC(=O)CCOCCOCCNCCNC(=O)[C@]4(Cc5cccc(Nc6nccs6)n5)CC[C@@H](Oc5cccc(Cl)c5F)CC4)ccc3C2=O)C(=O)N1 (stereo partly shown) [UB-181018] | – |
| 100 to 1000 nM | > 1000 nM | – | > 1000 nM | O=C1CCC(N2Cc3cc(NC(=O)CNCCCCOCCCCNC(=O)[C@]4(Cc5cccc(Nc6nccs6)n5)CC[C@@H](Oc5cccc(Cl)c5F)CC4)ccc3C2=O)C(=O)N1 (stereo partly shown) [UB-181019] | – |
| 100 to 1000 nM | > 1000 nM | – | > 1000 nM | O=C1CCC(N2Cc3cc(NC(=O)CNCCCOCCOCCn4cc(-c5ccc(Nc6ncc7c(n6)-c6ccc(Cl)cc6C(c6c(F)cccc6F)=NC7)cc5)nn4)ccc3C2=O)C(=O)N1 (stereo not shown) [UB-181020] | – |
| > 1000 nM | > 1000 nM | – | > 1000 nM | O=C1CCC(N2Cc3c(C#CCCNCCOCCOCCn4cc(-c5ccc(Nc6ncc7c(n6)-c6ccc(Cl)cc6C(c6c(F)cccc6F)=NC7)cc5)nn4)cccc3C2=O)C(=O)N1 (stereo not shown) [UB-181027] | – |
| 100 to 1000 nM | > 1000 nM | – | > 1000 nM | O=C1CCC(N2Cc3c(C#CCCNCCOCCOCCNC(=O)c4ccc(Nc5ncc6c(n5)-c5ccc(Cl)cc5C(c5c(F)cccc5F)=NC6)cc4)cccc3C2=O)C(=O)N1 (stereo not shown) [UB-181028] | – |
| > 1000 nM | > 1000 nM | – | > 1000 nM | O=C1CCC(N2Cc3cc(C#CCCNCCOCCOCCNC(=O)c4ccc(Nc5ncc6c(n5)-c5ccc(Cl)cc5C(c5c(F)cccc5F)=NC6)cc4)ccc3C2=O)C(=O)N1 (stereo not shown) [UB-181029] | – |
| > 1000 nM | > 1000 nM | – | > 1000 nM | O=C1CCC(N2Cc3c(NC(=O)CCNCCCOCCCCNC(=O)[C@]4(Cc5cccc(Nc6nccs6)n5)CC[C@@H](Oc5cccc(Cl)c5F)CC4)cccc3C2=O)C(=O)N1 (stereo partly shown) [UB-181030] | – |
| < 10 nM | – | < 10 nM | – | CC[C@@H]1C(=O)N(C)c2cnc(Nc3ccc(-c4cn([C@H]5CC[C@@H](N(C)CCOCCC#Cc6cccc7c6CN(C6CCC(=O)NC6=O)C7=O)CC5)nn4)cc3OC)nc2N1C1CCCC1 (stereo partly shown) [UB-181045] | IC50 (PC-3; Homo sapiens, PC-3, PC-3 cells): 100 to 1000 nM |
| – | – | – | – | CC[C@@H]1C(=O)N(C)c2cnc(Nc3ccc(C(=O)N[C@H]4CC[C@@H](NCCOCCC#Cc5cccc6c5CN([C@H]5CCC(=O)NC5=O)C6=O)CC4)cc3)nc2N1C1CCCC1 [UB-181179] | IC50 (MDA-MB-231 cells; MDA-MB-231 cells, read-out: Inhibitory activity IC50 on MDA-MB-231): 10 to 100 nM; IC50 (PC-3; PC-3 cells): 10 to 100 nM |
| < 10 nM | 10 to 100 nM | – | 10 to 100 nM | NC(=O)c1ccccc1Nc1nc(Nc2ccc(C3CCN(C(=O)N[C@H]4CC[C@@H](NCCC#Cc5cccc6c5CN(C5CCC(=O)NC5=O)C6=O)CC4)CC3)cc2)ncc1Cl (stereo partly shown) [UB-181183] | IC50 (PC-3; Homo sapiens, PC-3, PC-3 cells): 10 to 100 nM |
| – | 10 to 100 nM | – | < 10 nM | NC(=O)c1ccccc1Nc1nc(Nc2ccc(C3CCN(C(=O)NC4CCN(C5CN(CCC#Cc6ccc7c(c6)CN(C6CCC(=O)NC6=O)C7=O)C5)CC4)CC3)cc2)ncc1Cl (stereo not shown) [UB-181199] | IC50 (PC-3; Homo sapiens, PC-3, PC-3 cells): 10 to 100 nM |
| – | 100 to 1000 nM | – | 100 to 1000 nM | NC(=O)c1ccccc1Nc1nc(Nc2ccc(N3CCN(C(=O)N[C@H]4CC[C@@H](NCC(O)CC#Cc5ccc6c(c5)CN(C5CCC(=O)NC5=O)C6=O)CC4)CC3)cc2)ncc1Cl (stereo partly shown) [UB-181203] | IC50 (PC-3; Homo sapiens, PC-3, PC-3 cells): 100 to 1000 nM |
| – | 100 to 1000 nM | – | 100 to 1000 nM | NC(=O)c1ccccc1Nc1nc(Nc2ccc(C3CCN(C(=O)N[C@H]4CC[C@@H](NCCCCOCCC#Cc5ccc6c(c5)CN(C5CCC(=O)NC5=O)C6=O)CC4)CC3)cc2)ncc1Cl (stereo partly shown) [UB-181205] | IC50 (PC-3; Homo sapiens, PC-3, PC-3 cells): 100 to 1000 nM |
| < 10 nM | 100 to 1000 nM | > 1000 nM | > 1000 nM | O=C1CCC(N2Cc3cc(NC(=O)CCOCCOCCOCCN[C@H]4CC[C@@H](n5cc(-c6ccc(Nc7ncc8c(n7)-c7ccc(Cl)cc7C(c7c(F)cccc7F)=NC8)cc6)nn5)CC4)ccc3C2=O)C(=O)N1 (stereo partly shown) [UB- 180980] | – |
